Data on 15 compounds can be found in patent US20220202780A1, “PHARMACEUTICAL COMPOSITIONS AND COMBINATIONS COMPRISING INHIBITORS OF THE ANDROGEN RECEPTOR AND USES THEREOF” (ESSA Pharma, Inc., priority 2019, published 2022).

Test [1] relates to Androgen-induced PSA-luciferase. Nature of the test: Androgen-induced PSA (6.1 kb)-luciferase reporter assay in LNCaP cells. It counts as cell-based. Conditions: Homo sapiens, R1881 1 nM, 24 h. On the procedure:
To determine the IC50, treatments were normalized to the maximum activity with androgen-induction (in the absence of test compounds, vehicle only) (Table 1).
Luciferase Assay: Lysates were thawed on ice then collected into V-bottom 96-well tissue culture plates. Lysates were centrifuged at 4° C. for 5 minutes at 4000 rpm. To measure luminescence of LNCaP cell lysates the Firefly Luciferase Assay System (Promega) was employed, according to manufacturer's protocol.
Comparisons between treatment and control groups were compared using Two-Way ANOVA with post-hoc Dunnett's and Tukey's tests. Differences were considered statistically significant at P values less than 0.05. Densitometric quantification of relative AR levels was determined by Image.
(Reporter assays use an easily measured gene product as a stand-in for the process of interest.)

The next test has as its system VCaP tumors. Briefly: VCaP xenograft model, castrated male SCID Beige mice. Conditions: oral, castrated male SCID Beige mice (FIGS. 1-4). It counts as in vivo. On the procedure: Tumor growth was measured in male SCID Beige mice bearing VCaP tumors. […] Individual tumor volume change from baseline measured on day 17 of the experiment (FIGS. 2A-2B). Serum prostate-specific antigen (PSA) was measured in mice at the end of each treatment (FIG. 3). Body weight of the mice were captured biweekly in the animals and normalized to baseline (FIG. 4).

Test [2] relates to androgen responsive genes in LNCaP cells. Nature of the test: mRNA expression of androgen responsive genes in LNCaP cells (NanoString Androgen Receptor/Prostate Cancer gene panel).
Test [3] relates to AR full-length and AR V7 driven genes in LNCaP95 cells. Briefly: mRNA expression of androgen responsive genes in LNCaP95 (+R1881) cells (NanoString Androgen Receptor/Prostate Cancer gene panel).
Procedure: Relative mRNA expression in LNCaP95 (+R1881) was measured for Canonical AR target genes (FIG. 9A) and AR V7-activated genes (FIG. 9B).
Data shown in FIGS. 8A-8B and 9A-9B and Table 5 were generated using NanoString Androgen Receptor/Prostate Cancer gene panel.

A word on the IC50: it is the point on the concentration scale where inhibition reaches its midpoint. Lower therefore signals higher potency. In turn, `CC(C)(c1ccc(OCc2nc(S(C)(=O)=O)cs2)cc1)c1cc(Cl)c(OCCCl)c(C#N)c1` [Compound A136] came in with an IC50 in test [1] of 601 nM.

`CC(C)(c1ccc(OCc2ncc(S(C)(=O)=O)o2)cc1)c1cc(Cl)c(OCCCl)c(Cl)c1` [Compound A66]: it took 890 nM to reach half-maximal inhibition in test [1] (IC50).

Turning to `CCS(=O)(=O)Nc1nc(COc2ccc(C(C)(C)c3cc(Cl)c(OCCCl)c(C#N)c3)cc2)co1` [Compound A126], in test [1], the IC50 turned out to be 629 nM.

In test [1], `CC(C)(c1ccc(OCc2ocnc2S(C)(=O)=O)cc1)c1cc(Cl)c(OCCCl)c(C#N)c1` [Compound A28] gave an IC50 of 400 nM.

With `CC(C)(c1ccc(OCc2ncc(S(C)(=O)=O)s2)cc1)c1cc(Cl)c(OCCCl)c(C#N)c1` [Compound A93], inhibition in test [1] was half-maximal at 205 nM (IC50).

Compound `CC(C)(c1ccc(OCc2ocnc2S(C)(=O)=O)cc1)c1cc(Cl)c(OCCCl)c(Cl)c1` [Compound A13, 5-((4-(2-(3,5-dichloro-4-(2-chloroethoxy)phenyl)propan-2-yl)phenoxy)methyl)-4-(methylsulfonyl)oxazole] gave a 50% inhibitory concentration (IC50) in test [1] of 592 nM.

In test [1], `C[C@H](Oc1ccc(C(C)(C)c2cc(Cl)c(OCCCl)c(Cl)c2)cc1)c1ccnc(NS(C)(=O)=O)n1` [Compound A170] returned an IC50 of 651 nM.

Turning to `CC(C)(c1ccc(OCc2ccnc(NS(C)(=O)=O)n2)cc1)c1cc(Cl)c(OCCCl)c(C#N)c1` [Compound A109, N-(4-((4-(2-(3-chloro-4-(2-chloroethoxy)-5-cyanophenyl)propan-2-yl)phenoxy)methyl)pyrimidin-2-yl)methanesulfonamide], the anti-tumor response entry in the test with VCaP tumors (in combination with enzalutamide) is “excellent anti-tumor response”. The anti-tumor response entry in the test with VCaP tumors (monotherapy) is listed as “excellent anti-tumor response”. The “response in the androgen response genes FKBP5, TMPRSS2, KLK2, KLK3, and NKX3.1 (relative mRNA expression)” value in test [2] (LNCaP cells, FIG. 6A) is listed as “dose-dependent response”. In test [2] (LNCaP, 7.5 μM single agent), the “Log2Fold Change ACSL3” value is recorded as −3.62, the “Log2Fold Change AKAP12” value is on record as −3.84, the “Log2Fold Change CDC6” value was −3.60 and the “Log2Fold Change CENPN” value was −2.13. Besides, in test [2] (LNCaP, 7.5 μM single agent), the “Log2Fold Change EAF2” value was −3.81, the “Log2Fold Change ELL2” value is on record as −3.05, the “Log2Fold Change ERRFI1” value is −2.76 and the “Log2Fold Change FAM105A” value is −2.78. In addition, in test [2] (LNCaP, 7.5 μM single agent), the “Log2Fold Change FKBP5” value is reported as −4.47, the “Log2Fold Change KLK2” value is given as −2.71, the “Log2Fold Change KLK3” value was −2.42 and the “Log2Fold Change NCAPD3” value is −4.40. In test [2] (LNCaP, 7.5 μM single agent), the “Log2Fold Change NDRG1” value is −4.17, the “Log2Fold Change NKX3-1” value was −2.28, the “Log2Fold Change PLPP1” value was −3.53 and the “Log2Fold Change PMEPA1” value is −2.16. For the same compound, in test [2] (LNCaP, 7.5 μM single agent), the “Log2Fold Change RHOU” value is listed as −3.03, the “Log2Fold Change SNAI2” value is −1.79, the “Log2Fold Change STEAP4” value is given as −4.22 and the “Log2Fold Change TMPRSS2” value is listed as −3.32. In test [2] (LNCaP, FIGS. 5A-5B and Table 4), the “modulation of androgen receptor full-length driven genes” value is “can modulate androgen receptor0 full-length driven genes similar to enzalutamide”. Also, in test [3] (7.5 μM), the “log2 Fold Change ADAMTS1” value is recorded as −3.96, the “log2 Fold Change CCND1” value is on record as −3.96, the “log2 Fold Change FKBP5” value is reported as −4.18 and the “log2 Fold Change KLK2” value is −5.07. Moreover, in test [3] (7.5 μM), the “log2 Fold Change KLK3” value was −5.48, the “log2 Fold Change NCAPD3” value is −3.8, the “log2 Fold Change NDRG1” value is −4.47 and the “log2 Fold Change NKX3-1” value was −4.23. In test [3] (7.5 μM), the “log2 Fold Change PMEPA1” value is listed as −3.93 and the “log2 Fold Change PRR15L” value was −3.89. Further, the “modulation of AR full-length and AR V7 driven genes” value in test [3] (FIGS. 8A-8B and 9A-9B) is “can modulate AR full-length and AR V7 driven genes”. Besides, the half-maximal inhibitory concentration (IC50) in test [1] is 535 nM.

With `CCS(=O)(=O)Nc1nccc(COc2ccc(C(C)(C)c3cc(Cl)c(OCCCl)c(C#N)c3)cc2)n1` [Compound A131], inhibition in test [1] was half-maximal at 1100 nM (IC50). This lies in the single-digit micromolar range.

Turning to `CC(C)(c1ccc(OCc2ccnc(NS(C)(=O)=O)n2)cc1)c1cc(Cl)c(OCCCl)c(Cl)c1` [Compound A74], in test [1], the half-inhibitory concentration (IC50) worked out at 658 nM.

As for `Cc1cc(C(C)(C)c2ccc(OCc3ocnc3S(C)(=O)=O)cc2)cc(C#N)c1OCCCl` [Compound A29], the IC50 in test [1] is 466 nM.

Turning to `Cc1cnc(NS(C)(=O)=O)nc1COc1ccc(C(C)(C)c2cc(Cl)c(OCCCl)c(C#N)c2)cc1` [Compound A122], the 50% inhibitory concentration (IC50) in test [1] is 258 nM. This IC50 lies about 1.8-fold lower than the previous one.

`CC(Oc1ccc(C(C)(C)c2cc(Cl)c(OCCCl)c(Cl)c2)cc1)c1ocnc1S(C)(=O)=O` (centres unmarked) [Compound A35, 5-(1-(4-(2-(3,5-dichloro-4-(2-chloroethoxy)phenyl)propan-2-yl)phenoxy)ethyl)-4-(methylsulfonyl)oxazole]: half-maximal inhibition in test [1] (IC50) required 515 nM.

In the case of `CC(C)(c1ccc(OCc2coc(NS(C)(=O)=O)n2)cc1)c1cc(Cl)c(OCCCl)c(Cl)c1` [Compound A38, N-(4-((4-(2-(3,5-dichloro-4-(2-chloroethoxy)phenyl)propan-2-yl)phenoxy)methyl)oxazol-2-yl)methanesulfonamide], 631 nM corresponded to half-maximal inhibition in test [1] (IC50).

Turning to `CC(O)c1cc(C(=O)N[C@@H](C)Cn2ccc(-c3ccc(C#N)c(Cl)c3)n2)[nH]n1` (some centres unmarked) [Darolutamide, darolutamide, reference compound], the “activity on gene expression in LNCaP” value in test [2] (LNCaP cells, FIG. 7A-7B) was “not very active”.
